Measured values reported in publication PMC5132081 (The Febs Journal, 2016).
Read-outs that look alike come from different tables or passages of the source.

Columns and labels:
CYP109E1 [1] = biological target: T1, CYP109E1 (Priestia megaterium, UniProt D5DKI8); experiment: co-crystal structure; assay type: binding
T1 sequence (D5DKI8 1-404): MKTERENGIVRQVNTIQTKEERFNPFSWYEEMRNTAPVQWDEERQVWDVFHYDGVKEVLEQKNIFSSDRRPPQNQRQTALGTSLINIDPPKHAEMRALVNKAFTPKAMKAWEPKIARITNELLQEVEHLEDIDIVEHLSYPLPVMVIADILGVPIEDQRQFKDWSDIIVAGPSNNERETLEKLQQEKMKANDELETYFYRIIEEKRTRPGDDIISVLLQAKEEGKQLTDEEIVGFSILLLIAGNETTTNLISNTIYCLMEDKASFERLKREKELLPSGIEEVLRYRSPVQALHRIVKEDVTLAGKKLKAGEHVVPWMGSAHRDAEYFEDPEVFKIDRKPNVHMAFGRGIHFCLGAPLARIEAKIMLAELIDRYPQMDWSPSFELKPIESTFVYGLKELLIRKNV

CYP109E1 [2] = biological target: CYP109E1 (Priestia megaterium, UniProt D5DKI8, K187A); experiment: in vitro turnover of purified mutant with Adx4-108/AdR, HPLC; assay type: biochemical
CYP109E1 [3] = biological target: CYP109E1 (Priestia megaterium, UniProt D5DKI8, E245A); experiment: as above; assay type: biochemical
CYP109E1 [4] = biological target: T1, CYP109E1; experiment: co-crystal structure; assay type: binding; remark: listed apart in the source

C[C@]12CC[C@H]3[C@@H](CCC4=CC(=O)CC[C@@]43C)[C@@H]1CC[C@@H]2O [compound 11, testosterone] was tested, and the Kd (CYP109E1 [1]) was 105 ± 10 µM, the “Catalytic activity for the formation of 16β-OH-TES, nmol.(nmol P450)^-1.min^-1” value (CYP109E1 [2]) was 1.43 ± 0.06 nmol·(nmol P450)^−1·min^−1 and the “Catalytic activity for the formation of 16β-OH-TES, nmol.(nmol P450)^-1.min^-1” value (CYP109E1 [3]) was 4.69 ± 0.04 nmol·(nmol P450)^−1·min^−1.

Compound C[C@]12C[C@H](O)[C@H]3[C@@H](CCC4=CC(=O)CC[C@@]43C)[C@@H]1CC[C@@H]2C(=O)CO [compound 4, corticosterone] has a Kd (CYP109E1 [4]) of 91 ± 8 µM.
